Test results published in patent publication US20050004185A1, “Polyene polyketides, processes for their production and their use as pharmaceuticals” (priority 2003, published 2005).
Values after ≈ are worked out from the molar mass of the structure shown. Where two headings read alike, the source gives them in different places. Values belong to the compound of their own block, whether it stands above or below them.

Columns and labels:
MCF7 = assay: In vitro cytotoxic efficacy (MTT); type: cell-based; details: Homo sapiens
MDA-MB-231/ATCC = assay: In vitro cytotoxic efficacy (MTT); details: Homo sapiens, MDA-MB-231, 96 h
C. glabrata (Cgla) = assay: MIC broth microdilution assay (NCCLS M27-A); type: cell-based; details: Nakaseomyces glabratus, read-out: Minimal Inhibitory Concentrations
PANC-1 = assay: In vitro cytotoxic efficacy (MTT); type: cell-based; details: Homo sapiens, Pancreatic, 96 h
SK-OV3 = assay: In vitro cytotoxic efficacy (MTT); type: cell-based; details: Homo sapiens
Candida sp. (Cflu) = assay: MIC broth microdilution assay (NCCLS M27-A); type: cell-based; details: read-out: Minimal Inhibitory Concentrations
C. albicans (Calb) = assay: MIC broth microdilution assay (NCCLS M27-A); type: cell-based; details: Candida albicans, read-out: Minimal Inhibitory Concentrations
HT29 = assay: In vitro cytotoxic efficacy (MTT); type: cell-based; details: Homo sapiens
LB1319-MEL = assay: In vitro cytotoxic efficacy (MTT); type: cell-based; details: Melanoma, 96 h
A549/ATCC = assay: In vitro cytotoxic efficacy (MTT); type: cell-based; details: Homo sapiens
SNB-19 = assay: In vitro cytotoxic efficacy (MTT); type: cell-based; details: Homo sapiens
NCI-H460 = assay: In vitro cytotoxic efficacy (MTT); type: cell-based; details: Homo sapiens
PC-3 = assay: In vitro cytotoxic efficacy (MTT); details: Homo sapiens, PC-3, 96 h
S. cerevisiae (Scer) = assay: MIC broth microdilution assay (NCCLS M27-A); details: Saccharomyces cerevisiae, read-out: Minimal Inhibitory Concentrations
A498 = assay: In vitro cytotoxic efficacy (MTT); details: Homo sapiens, A498, 96 h
OVCAR-3 = assay: In vitro cytotoxic efficacy (MTT); type: cell-based; details: Homo sapiens, Ovarian, 96 h
DU-145 = assay: In vitro cytotoxic efficacy (MTT); type: cell-based; details: Homo sapiens, Prostate, 96 h
C. albicans (Ctro) = assay: MIC broth microdilution assay (NCCLS M27-A); type: cell-based; details: Candida albicans, read-out: Minimal Inhibitory Concentrations
HCT-15 = assay: In vitro cytotoxic efficacy (MTT); type: cell-based; details: Homo sapiens, Colon, 96 h
U-251 = assay: In vitro cytotoxic efficacy (MTT); type: cell-based; details: Homo sapiens, CNS, 96 h
T-47D = assay: In vitro cytotoxic efficacy (MTT); type: cell-based; details: Homo sapiens, T47D, Breast, 96 h
SF-295 = assay: In vitro cytotoxic efficacy (MTT); type: cell-based; details: Homo sapiens, CNS, 96 h
RXF 393 = assay: In vitro cytotoxic efficacy (MTT); type: cell-based; details: Homo sapiens, Renal, 96 h
M14 = assay: In vitro cytotoxic efficacy (MTT); type: cell-based; details: Homo sapiens, Melanoma, 96 h
MOLT-4 = assay: In vitro cytotoxic efficacy (MTT); type: cell-based; details: Homo sapiens, Leukemia, 96 h
SW-620 = assay: In vitro cytotoxic efficacy (MTT); type: cell-based; details: Homo sapiens, Colon, 96 h
UACC = assay: In vitro cytotoxic efficacy (MTT); type: cell-based; details: 96 h
OVCAR-4 = assay: In vitro cytotoxic efficacy (MTT); type: cell-based; details: Homo sapiens, Ovarian, 96 h
SK-MEL-5 = assay: In vitro cytotoxic efficacy (MTT); type: cell-based; details: Homo sapiens, Melanoma, 96 h
OVCAR-5 = assay: In vitro cytotoxic efficacy (MTT); type: cell-based; details: Homo sapiens, Ovarian, 96 h
786-0 = assay: In vitro cytotoxic efficacy (MTT); type: cell-based; details: Homo sapiens, Renal, 96 h
SNB-75 = assay: In vitro cytotoxic efficacy (MTT); type: cell-based; details: Homo sapiens, CNS, 96 h
NCI-H522 = assay: In vitro cytotoxic efficacy (MTT); type: cell-based; details: Homo sapiens, Non-small cell lung, 96 h
SN12C = assay: In vitro cytotoxic efficacy (MTT); type: cell-based; details: Homo sapiens, Renal, 96 h
CCRF-CEM = assay: In vitro cytotoxic efficacy (MTT); type: cell-based; details: Homo sapiens, Leukemia, 96 h
HCT-116 = assay: In vitro cytotoxic efficacy (MTT); details: Homo sapiens, HCT-116, 96 h
MDA-MB-435 = assay: In vitro cytotoxic efficacy (MTT); type: cell-based; details: Homo sapiens, Breast, 96 h
CAKI-1 = assay: In vitro cytotoxic efficacy (MTT); type: cell-based; details: Homo sapiens, Renal, 96 h
NCI/ADR-RES = assay: In vitro cytotoxic efficacy (MTT); type: cell-based; details: Homo sapiens, Breast, 96 h
LOX IMVI = assay: In vitro cytotoxic efficacy (MTT); type: cell-based; details: Homo sapiens, Melanoma, 96 h
SK-MEL-28 = assay: In vitro cytotoxic efficacy (MTT); type: cell-based; details: Homo sapiens, Melanoma, 96 h
COLO 205 = assay: In vitro cytotoxic efficacy (MTT); type: cell-based; details: Homo sapiens, Colon, 96 h
UACC-257 = assay: In vitro cytotoxic efficacy (MTT); type: cell-based; details: Homo sapiens, Melanoma, 96 h
IGROV1 = assay: In vitro cytotoxic efficacy (MTT); type: cell-based; details: Homo sapiens, IGROV-1, Ovarian, 96 h
SF-268 = assay: In vitro cytotoxic efficacy (MTT); type: cell-based; details: Homo sapiens, CNS, 96 h
EKVX = assay: In vitro cytotoxic efficacy (MTT); type: cell-based; details: Homo sapiens, Non-small cell lung, 96 h
UO-31 = assay: In vitro cytotoxic efficacy (MTT); type: cell-based; details: Homo sapiens, Renal, 96 h
SF-539 = assay: In vitro cytotoxic efficacy (MTT); type: cell-based; details: Homo sapiens, CNS, 96 h
OVCAR-8 = assay: In vitro cytotoxic efficacy (MTT); type: cell-based; details: Homo sapiens, Ovarian, 96 h
K562 = assay: In vitro cytotoxic efficacy (MTT); type: cell-based; details: Homo sapiens, Leukemia, 96 h
HL-60 (TB) = assay: In vitro cytotoxic efficacy (MTT); type: cell-based; details: Homo sapiens, Leukemia, 96 h
HCC-2998 = assay: In vitro cytotoxic efficacy (MTT); type: cell-based; details: Homo sapiens, Colon, 96 h
HOP-92 = assay: In vitro cytotoxic efficacy (MTT); type: cell-based; details: Homo sapiens, Non-small cell lung, 96 h
BT-549 = assay: In vitro cytotoxic efficacy (MTT); type: cell-based; details: Homo sapiens, Breast, 96 h
RPMI-8226 = assay: In vitro cytotoxic efficacy (MTT); type: cell-based; details: Homo sapiens, Leukemia, 96 h
SR = assay: In vitro cytotoxic efficacy (MTT); type: cell-based; details: Homo sapiens, Leukemia, 96 h
TK-10 = assay: In vitro cytotoxic efficacy (MTT); type: cell-based; details: Homo sapiens, Renal, 96 h
KM12 = assay: In vitro cytotoxic efficacy (MTT); type: cell-based; details: Homo sapiens, Colon, 96 h
SK-MEL-2 = assay: In vitro cytotoxic efficacy (MTT); type: cell-based; details: Homo sapiens, Melanoma, 96 h

MIC (C. glabrata (Cgla); 24 hrs): 4 µg/mL (≈ 3.28 µM)
MIC (Candida sp. (Cflu); 24 hrs): 8 µg/mL (≈ 6.57 µM)
MIC (C. albicans (Calb); 24 hrs): 4 µg/mL (≈ 3.28 µM)
MIC (S. cerevisiae (Scer); 24 h): 4 µg/mL (≈ 3.28 µM)
MIC (C. albicans (Ctro); C. albicans (Ctro), 24 hrs): 4 µg/mL (≈ 3.28 µM)
Structure (SMILES): C\C(=C/C=C/C=C/CC/C=C/C(C)C(O)C(C)C(O)/C=C/C=C/C=C/C=C/C=C/C=C/CC(OS(=O)(=O)O)C(C)C(=O)CC(O)CC(O)/C=C/CC(O)CC(O)CC(O)/C=C/CC(O)CC(O)/C=C/CC(O)CC(O)CCCNC(=N)N)C(=O)O (stereo not shown) [Compound 1]
IC50 (MCF7; Breast, MCF7, 96 h, MTT, read-out: IC50): 18 µM
IC50 (MDA-MB-231/ATCC): 12 µM
IC50 (PANC-1): 15 µM
IC50 (SK-OV3; SK-OV-3, Ovarian, SK-OV3, 96 h, MTT, read-out: IC50): 15 µM
IC50 (HT29; HT-29, Colon, HT29, 96 h, MTT, read-out: IC50): 23 µM
IC50 (LB1319-MEL): 11 µM
IC50 (A549/ATCC; Non-small cell lung, A549/ATCC, 96 h, MTT, read-out: IC50): 12 µM
IC50 (SNB-19; CNS, SNB-19, 96 h, MTT, read-out: IC50): 10 µM
IC50 (NCI-H460; Non-small cell lung, NCI-H460, 96 h, MTT, read-out: IC50): 13 µM
IC50 (PC-3): 10 µM
IC50 (A498): 13 µM
IC50 (OVCAR-3): 12 µM
IC50 (DU-145): 8 µM

Structure (SMILES): C\C(=C/C=C/C=C/CC/C=C/C(C)C(O)C(C)C(O)/C=C/C=C/C=C/C=C/C=C/C=C/CC(O)C(C)C(=O)CC(O)CC(O)/C=C/CC(O)CC(O)CC(O)/C=C/CC(O)CC(O)/C=C/CC(O)CC(O)CCCNC(=N)N)C(=O)O (stereo not shown) [Compound 2]
IC50 (HCT-15): 8 µM
IC50 (U-251): 6 µM
IC50 (T-47D): > 25 µM
IC50 (SF-295): 4 µM
IC50 (MCF7; MCF7, 96 h): 0.3 µM
IC50 (MDA-MB-231/ATCC): 9 µM
IC50 (RXF 393): 0.4 µM
IC50 (M14): 0.5 µM
MIC (C. glabrata (Cgla); 48 hrs): 4 µg/mL (≈ 3.51 µM)
IC50 (MOLT-4): > 25 µM
IC50 (SK-OV3; SK-OV-3, 96 h): > 25 µM
IC50 (SW-620): 1 µM
IC50 (UACC): 8 µM
IC50 (OVCAR-4): > 25 µM
IC50 (SK-MEL-5): 2 µM
IC50 (OVCAR-5): 6 µM
IC50 (786-0): 8 µM
IC50 (SNB-75): 10 µM
IC50 (NCI-H522): 2 µM
MIC (Candida sp. (Cflu); 48 hrs): 8 µg/mL (≈ 7.03 µM)
IC50 (SN12C): 7 µM
IC50 (CCRF-CEM): > 25 µM
IC50 (HCT-116): 2 µM
IC50 (MDA-MB-435): 0.9 µM
MIC (C. albicans (Calb); 48 hrs): 4 µg/mL (≈ 3.51 µM)
IC50 (CAKI-1): 2 µM
IC50 (HT29; HT-29, 96 h): 4 µM
IC50 (NCI/ADR-RES): 24 µM
IC50 (LOX IMVI): 6 µM
IC50 (SK-MEL-28): 13 µM
IC50 (A549/ATCC; A549, 96 h): 7 µM
IC50 (SNB-19; SNB-19, 96 h): > 25 µM
IC50 (COLO 205): 7 µM
IC50 (UACC-257): 5 µM
IC50 (IGROV1): 0.6 µM
IC50 (SF-268): 4 µM
IC50 (NCI-H460; NCI-H460, 96 h): 2 µM
IC50 (EKVX): 8 µM
IC50 (UO-31): 8 µM
IC50 (SF-539): 3 µM
IC50 (OVCAR-8): 5 µM
IC50 (K562): 8 µM
IC50 (PC-3): 4 µM
MIC (S. cerevisiae (Scer); 48 h): 4 µg/mL (≈ 3.51 µM)
IC50 (HL-60 (TB)): 17 µM
IC50 (HCC-2998): 0.1 µM
IC50 (HOP-92): > 25 µM
IC50 (BT-549): 0.9 µM
IC50 (A498): 6 µM
IC50 (RPMI-8226): 6 µM
IC50 (SR): 1 µM
MIC (C. albicans (Ctro); 48 h): 4 µg/mL (≈ 3.51 µM)
IC50 (TK-10): 7 µM
IC50 (KM12): 0.8 µM
IC50 (SK-MEL-2): 3 µM
